Laboratory results as given in PubChem BioAssay AID1259407 (Chemical Carcinogenesis Research Information System (CCRIS), 2018).
The source made the active and inactive calls. How the calls were made is not given here.

Tested on: CCRIS mutagenicity, Ames/micronucleus/aberration tests
Test: CCRIS mutagenicity studies
[1] = Test System: AMES SALMONELLA TYPHIMURIUM, Strain/Indicator: TA98, Metabolic Activation: NONE, Method: STANDARD PLATE
[2] = Test System: AMES SALMONELLA TYPHIMURIUM, Strain/Indicator: TA100, Metabolic Activation: NONE, Method: STANDARD PLATE
[3] = Test System: AMES SALMONELLA TYPHIMURIUM, Strain/Indicator: TA1535, Metabolic Activation: NONE, Method: STANDARD PLATE
[4] = Test System: AMES SALMONELLA TYPHIMURIUM, Strain/Indicator: TA1537, Metabolic Activation: NONE, Method: STANDARD PLATE

Question: What does the source list for `CC1COCc2cc3c(cc21)C(C)(C)C(C)C3(C)C` (stereo not given)?
Answer: mutagenic call (Test System: AMES SALMONELLA TYPHIMURIUM, Strain/Indicator: TA97, Metabolic Activation: NONE, Method: STANDARD PLATE): inactive; negative; mutagenic call (Test System: AMES SALMONELLA TYPHIMURIUM, Strain/Indicator: TA97, Metabolic Activation: RAT LIVER S-9, AROCLOR 1254, Method: STANDARD PLATE): inactive; negative; mutagenic call [1]: inactive; negative; mutagenic call (Test System: AMES SALMONELLA TYPHIMURIUM, Strain/Indicator: TA98, Metabolic Activation: RAT LIVER S-9,AROCLOR 1254, Method: STANDARD PLATE): inactive; negative; mutagenic call [2]: inactive; negative; mutagenic call (Test System: AMES SALMONELLA TYPHIMURIUM, Strain/Indicator: TA100, Metabolic Activation: RAT LIVER S-9, AROCLOR 1254, Method: STANDARD PLATE): inactive; negative; mutagenic call (Test System: AMES SALMONELLA TYPHIMURIUM, Strain/Indicator: TA102, Metabolic Activation: NONE, Method: STANDARD PLATE): inactive; negative; mutagenic call (Test System: AMES SALMONELLA TYPHIMURIUM, Strain/Indicator: TA102, Metabolic Activation: RAT LIVER S-9, AROCLOR 1254, Method: STANDARD PLATE): inactive; negative; mutagenic call [3]: inactive; negative; mutagenic call (Test System: AMES SALMONELLA TYPHIMURIUM, Strain/Indicator: TA1535, Metabolic Activation: RAT LIVER S-9, AROCLOR 1254, Method: STANDARD PLATE): inactive; negative; mutagenic call [4]: inactive; negative; mutagenic call (Test System: AMES SALMONELLA TYPHIMURIUM, Strain/Indicator: TA1537, Metabolic Activation: RAT LIVER S-9, AROCLOR 1254, Method: STANDARD PLATE): inactive; negative; mutagenic call (Test System: AMES SALMONELLA TYPHIMURIUM, Strain/Indicator: TA1538, Metabolic Activation: NONE, Method: STANDARD PLATE): inactive; negative; mutagenic call (Test System: AMES SALMONELLA TYPHIMURIUM, Strain/Indicator: TA1538, Metabolic Activation: RAT LIVER S-9, AROCLOR 1254, Method: STANDARD PLATE): inactive; negative; mutagenic call (Test System: ESCHERICHIA COLI, Strain/Indicator: WP2 UVR A, Metabolic Activation: NONE, Method: STANDARD PLATE): inactive; negative; mutagenic call (Test System: ESCHERICHIA COLI, Strain/Indicator: WP2 UVR A, Metabolic Activation: RAT LIVER S-9, AROCLOR 1254, Method: STANDARD PLATE): inactive; negative; mutagenic call (Test System: UDS RAT HEPATOCYTES, Metabolic Activation: NONE, Method: NET NUCLEAR GRAIN COUNT): inactive; negative

Question: `Cc1ccc(S(=O)(=O)N2C3c4ccccc4-c4ccccc4C32)cc1` (stereo not given) was tested. Which mutagenic call [2] did it give?
Answer: active; positive

Question: With `CC(C)CCNc1snc2ccccc12` as the compound, how does the mutagenic call [1] read?
Answer: inactive; negative

Question: What about the mutagenic call (Test System: AMES SALMONELLA TYPHIMURIUM, Strain/Indicator: TA98, Metabolic Activation: S-9, Method: STANDARD PLATE) of the same compound?
Answer: inactive; negative

Question: And the mutagenic call [2]?
Answer: inactive; negative

Question: What about the mutagenic call (Test System: AMES SALMONELLA TYPHIMURIUM, Strain/Indicator: TA100, Metabolic Activation: S-9, Method: STANDARD PLATE) of the same compound?
Answer: inactive; negative

Question: What about the mutagenic call [3] of the same compound?
Answer: inactive; negative

Question: What about the mutagenic call (Test System: AMES SALMONELLA TYPHIMURIUM, Strain/Indicator: TA1535, Metabolic Activation: S-9, Method: STANDARD PLATE) of the same compound?
Answer: inactive; negative

Question: And the mutagenic call [4]?
Answer: inactive; negative

Question: What about the mutagenic call (Test System: AMES SALMONELLA TYPHIMURIUM, Strain/Indicator: TA1537, Metabolic Activation: S-9, Method: STANDARD PLATE) of the same compound?
Answer: inactive; negative

Question: With `Nc1ncn[nH]1` as the compound, how does the mutagenic call (Test System: AMES SALMONELLA TYPHIMURIUM, Strain/Indicator: TA97, Metabolic Activation: HAMSTER, LIVER, S-9, AROCLOR 1254 (10 OR 30%), Method: PREINCUBATION) read?
Answer: inactive; negative

Question: And the mutagenic call (Test System: AMES SALMONELLA TYPHIMURIUM, Strain/Indicator: TA97, Metabolic Activation: NONE, Method: PREINCUBATION)?
Answer: inactive; negative

Question: What about the mutagenic call (Test System: AMES SALMONELLA TYPHIMURIUM, Strain/Indicator: TA97, Metabolic Activation: RAT, LIVER, S-9, AROCLOR 1254 (10 OR 30%), Method: PREINCUBATION) of the same compound?
Answer: inactive; negative

Question: And the mutagenic call (Test System: AMES SALMONELLA TYPHIMURIUM, Strain/Indicator: TA98, Metabolic Activation: HAMSTER, LIVER, S-9, AROCLOR 1254 (10 OR 30%), Method: PREINCUBATION)?
Answer: inactive; negative

Question: What about the mutagenic call (Test System: AMES SALMONELLA TYPHIMURIUM, Strain/Indicator: TA98, Metabolic Activation: NONE, Method: PREINCUBATION) of the same compound?
Answer: inactive; negative

Question: What about the mutagenic call (Test System: AMES SALMONELLA TYPHIMURIUM, Strain/Indicator: TA98, Metabolic Activation: PROSTAGLANDIN H SYNTHASE, Method: PREINCUBATION) of the same compound?
Answer: inactive; negative

Question: What about the mutagenic call (Test System: AMES SALMONELLA TYPHIMURIUM, Strain/Indicator: TA98, Metabolic Activation: RAT, LIVER, S-9, AROCLOR 1254 (10 OR 30%), Method: PREINCUBATION) of the same compound?
Answer: inactive; negative

Question: What about the mutagenic call (Test System: AMES SALMONELLA TYPHIMURIUM, Strain/Indicator: TA100, Metabolic Activation: HAMSTER, LIVER, S-9, AROCLOR 1254 (10 OR 30%), Method: PREINCUBATION) of the same compound?
Answer: inactive; negative

Question: What about the mutagenic call (Test System: AMES SALMONELLA TYPHIMURIUM, Strain/Indicator: TA100, Metabolic Activation: NONE, Method: PREINCUBATION) of the same compound?
Answer: inactive; negative

Question: And the mutagenic call (Test System: AMES SALMONELLA TYPHIMURIUM, Strain/Indicator: TA100, Metabolic Activation: RAT, LIVER, S-9, AROCLOR 1254 (10 OR 30%), Method: PREINCUBATION)?
Answer: inactive; negative

Question: And the mutagenic call (Test System: AMES SALMONELLA TYPHIMURIUM, Strain/Indicator: TA1535, Metabolic Activation: HAMSTER, LIVER, S-9, AROCLOR 1254 (10 OR 30%), Method: PREINCUBATION)?
Answer: inactive; negative

Question: What about the mutagenic call (Test System: AMES SALMONELLA TYPHIMURIUM, Strain/Indicator: TA1535, Metabolic Activation: NONE, Method: PREINCUBATION) of the same compound?
Answer: inactive; negative

Question: And the mutagenic call (Test System: AMES SALMONELLA TYPHIMURIUM, Strain/Indicator: TA1535, Metabolic Activation: RAT, LIVER, S-9, AROCLOR 1254 (5 OR 10%), Method: PREINCUBATION)?
Answer: inactive; negative

Question: And the mutagenic call (Test System: AMES SALMONELLA TYPHIMURIUM, Strain/Indicator: TA1535, Metabolic Activation: RAT, LIVER, S-9, AROCLOR 1254 (30%), Method: PREINCUBATION)?
Answer: inactive; negative

Question: What about the mutagenic call (Test System: E. COLI, Strain/Indicator: WP2 UVRA, Metabolic Activation: HAMSTER, LIVER, S-9, AROCLOR 1254, Method: STANDARD PLATE) of the same compound?
Answer: inactive; negative

Question: What about the mutagenic call (Test System: E. COLI, Strain/Indicator: WP2 UVRA, Metabolic Activation: HAMSTER, LIVER, S-9, Method: STANDARD PLATE) of the same compound?
Answer: inactive; negative

Question: What about the mutagenic call (Test System: E. COLI, Strain/Indicator: WP2 UVRA, Metabolic Activation: MOUSE, LIVER, S-9, AROCLOR 1254, Method: STANDARD PLATE) of the same compound?
Answer: inactive; negative

Question: And the mutagenic call (Test System: E. COLI, Strain/Indicator: WP2 UVRA, Metabolic Activation: MOUSE, LIVER, S-9, Method: STANDARD PLATE)?
Answer: inactive; negative

Question: What about the mutagenic call (Test System: E. COLI, Strain/Indicator: WP2 UVRA, Metabolic Activation: NONE, Method: STANDARD PLATE) of the same compound?
Answer: inactive; negative

Question: What about the mutagenic call (Test System: E. COLI, Strain/Indicator: WP2 UVRA, Metabolic Activation: RAT, LIVER, S-9, AROCLOR 1254, Method: STANDARD PLATE) of the same compound?
Answer: inactive; negative

Question: What about the mutagenic call (Test System: E. COLI, Strain/Indicator: WP2 UVRA, Metabolic Activation: RAT, LIVER, S-9, Method: STANDARD PLATE) of the same compound?
Answer: inactive; negative

Question: And the mutagenic call (Test System: MOUSE LYMPHOMA, Strain/Indicator: L5178Y (TK+/TK-), Metabolic Activation: NONE, Method: SUSPENSION/PLATE)?
Answer: inactive; negative

Question: And the mutagenic call (Test System: MOUSE LYMPHOMA, Strain/Indicator: L5178Y (TK+/TK-), Metabolic Activation: RAT, LIVER, S-9, AROCLOR 1254, Method: SUSPENSION/PLATE)?
Answer: inactive; negative

Question: And the mutagenic call (Test System: MOUSE LYMPHOMA, Strain/Indicator: L5178Y (TK+/TK-), Metabolic Activation: RAT, LIVER, S-9, Method: SUSPENSION/PLATE)?
Answer: inactive; negative
